# Data as given in BindingDB's records for patent US10364255 (Boehringer Ingleheim International, 2019).
# Biological target: T1, Pantetheinase [T26I] (Homo sapiens, UniProt O95497, T26I)
# T1 construct: gene VNN1
# Experiment: Enzymatic Assay
# Description: Method 1:Vanin-1 Enzymatic Assay:The test compounds are dissolved in 100% DMSO at a concentration of 10 mM and in a first step diluted in DMSO to a concentration of 5 mM, followed by serial dilution steps in 100% DMSO. Dilution factor and number of dilution steps may vary according to needs. Typically 8 different concentrations by 1:5 dilutions are prepared, a further intermediate dilutions of the substances is carried out with assay buffer resulting in 1% final DMSO concentration in the assay. 0.15 nM of FLAG-tagged Vanin-1 (AA 22-493, T26I, produced internally) and test compounds are incubated at room temperature for 15 minutes in assay buffer (1 mM DTT, 0.0025% Brij-35, 50 mM HEPES, pH7.5). 3 μM D-Pantethine (Sigma, Cat#P2125-5G) in assay buffer is added and incubated for additional 30 minutes at room temperature. Reaction is stopped by adding equal volume of stop solution as the reaction mixture to reach 5 nM Nevirapine (as an internal standard) and 0.5% TFA. Assay plates are centrifuged for 2 minutes and the formation of pantothenic acid is detected by RapidFire Mass Spectrometry (mobile phase A: 0.1% formic acid in water, mobile phase B: 100% methanol) using graphitic carbon cartridge (Agilent Cat #G9206A).
# T1 sequence (O95497 22-491 T26I limits assumed): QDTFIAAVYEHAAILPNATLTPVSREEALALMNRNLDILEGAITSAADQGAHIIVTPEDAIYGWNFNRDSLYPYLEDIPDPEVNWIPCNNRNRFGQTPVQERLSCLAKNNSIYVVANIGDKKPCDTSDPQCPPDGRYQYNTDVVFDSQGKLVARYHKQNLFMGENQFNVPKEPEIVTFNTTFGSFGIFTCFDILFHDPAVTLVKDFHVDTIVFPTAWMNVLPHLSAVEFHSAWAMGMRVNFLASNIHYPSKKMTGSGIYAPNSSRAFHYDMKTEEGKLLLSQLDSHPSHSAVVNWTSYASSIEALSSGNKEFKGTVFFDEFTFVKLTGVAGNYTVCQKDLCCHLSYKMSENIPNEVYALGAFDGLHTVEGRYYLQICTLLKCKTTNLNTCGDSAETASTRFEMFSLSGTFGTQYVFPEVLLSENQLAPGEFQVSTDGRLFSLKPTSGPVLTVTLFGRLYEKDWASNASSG
row,SMILES,IC50 [nM]
1,"O=C(c1cnc2c(c1)OCCN2)N1CCCCC1 [US10364255, Ex. 3]",2800
2,"O=C(c1cnc2c(c1)OCCN2)N1CCC(c2ccncc2)C1 (stereo not drawn) [US10364255, Ex. 38]",14.2
3,"CC(=O)N(C)[C@H]1CCN(C(=O)c2cnc3c(c2)OCCN3)C1 [US10364255, Ex. 39]",8.1

# Now those with a lower IC50, led by results:
row,IC50 [nM],SMILES
1,3.7,"O=C(c1cnc2c(c1)O[C@H](CO)CN2)N1CCC(c2ccncc2)C1 (stereo partly drawn) [US10364255, Ex. 43]"
2,2.5,"CC(=O)N(C)[C@H]1CCN(C(=O)c2cnc3c(c2)O[C@H](CO)CN3)C1 [US10364255, Ex. 41]"
3,1.7,"CC(=O)N(C)[C@H]1CCN(C(=O)c2cnc3c(c2)OCCCN3)C1 [US10364255, Ex. 44]"
4,1.3,"CC(=O)N(C)[C@H]1CCN(C(=O)c2cnc3c(c2)O[C@H](C)CN3)C1 [US10364255, Ex. 32]"
5,0.5,"CC(=O)N(C)[C@H]1CCN(C(=O)c2cnc3c(c2)OCC(C)(C)N3)C1 [US10364255, Ex. 14]"
